ChEMBL document CHEMBL4007384, “Synthesis and optimization of furano[3,2-d]pyrimidines as selective spleen tyrosine kinase (Syk) inhibitors” (Bioorg Med Chem Lett, 2016)

Columns and labels:
Activin receptor type-1 = biological target: T1, Activin receptor type-1 (Homo sapiens, UniProt Q04771); experiment: Inhibition of ACVR1 (unknown origin) after 60 mins by TR-FRET assay
T1 sequence (Q04771 whole entry): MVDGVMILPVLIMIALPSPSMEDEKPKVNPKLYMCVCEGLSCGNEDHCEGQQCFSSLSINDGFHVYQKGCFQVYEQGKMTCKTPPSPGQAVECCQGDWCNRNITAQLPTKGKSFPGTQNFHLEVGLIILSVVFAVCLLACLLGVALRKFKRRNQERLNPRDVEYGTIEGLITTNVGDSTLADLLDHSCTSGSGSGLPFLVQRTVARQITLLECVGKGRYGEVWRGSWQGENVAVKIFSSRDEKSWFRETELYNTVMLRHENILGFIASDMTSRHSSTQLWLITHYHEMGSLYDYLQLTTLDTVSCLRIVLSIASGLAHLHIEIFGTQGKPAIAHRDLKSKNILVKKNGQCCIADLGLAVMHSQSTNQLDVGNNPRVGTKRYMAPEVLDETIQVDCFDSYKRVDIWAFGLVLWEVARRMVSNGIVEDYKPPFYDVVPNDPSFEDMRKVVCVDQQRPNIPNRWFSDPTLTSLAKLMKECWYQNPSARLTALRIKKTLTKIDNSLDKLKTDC

[1] = biological target: Platelet-derived growth factor receptor beta (Homo sapiens, UniProt P09619); experiment: Inhibition of PDGFRB (unknown origin) after 60 mins by TR-FRET assay
Chain of Platelet-derived growth factor receptor beta (P09619 whole entry): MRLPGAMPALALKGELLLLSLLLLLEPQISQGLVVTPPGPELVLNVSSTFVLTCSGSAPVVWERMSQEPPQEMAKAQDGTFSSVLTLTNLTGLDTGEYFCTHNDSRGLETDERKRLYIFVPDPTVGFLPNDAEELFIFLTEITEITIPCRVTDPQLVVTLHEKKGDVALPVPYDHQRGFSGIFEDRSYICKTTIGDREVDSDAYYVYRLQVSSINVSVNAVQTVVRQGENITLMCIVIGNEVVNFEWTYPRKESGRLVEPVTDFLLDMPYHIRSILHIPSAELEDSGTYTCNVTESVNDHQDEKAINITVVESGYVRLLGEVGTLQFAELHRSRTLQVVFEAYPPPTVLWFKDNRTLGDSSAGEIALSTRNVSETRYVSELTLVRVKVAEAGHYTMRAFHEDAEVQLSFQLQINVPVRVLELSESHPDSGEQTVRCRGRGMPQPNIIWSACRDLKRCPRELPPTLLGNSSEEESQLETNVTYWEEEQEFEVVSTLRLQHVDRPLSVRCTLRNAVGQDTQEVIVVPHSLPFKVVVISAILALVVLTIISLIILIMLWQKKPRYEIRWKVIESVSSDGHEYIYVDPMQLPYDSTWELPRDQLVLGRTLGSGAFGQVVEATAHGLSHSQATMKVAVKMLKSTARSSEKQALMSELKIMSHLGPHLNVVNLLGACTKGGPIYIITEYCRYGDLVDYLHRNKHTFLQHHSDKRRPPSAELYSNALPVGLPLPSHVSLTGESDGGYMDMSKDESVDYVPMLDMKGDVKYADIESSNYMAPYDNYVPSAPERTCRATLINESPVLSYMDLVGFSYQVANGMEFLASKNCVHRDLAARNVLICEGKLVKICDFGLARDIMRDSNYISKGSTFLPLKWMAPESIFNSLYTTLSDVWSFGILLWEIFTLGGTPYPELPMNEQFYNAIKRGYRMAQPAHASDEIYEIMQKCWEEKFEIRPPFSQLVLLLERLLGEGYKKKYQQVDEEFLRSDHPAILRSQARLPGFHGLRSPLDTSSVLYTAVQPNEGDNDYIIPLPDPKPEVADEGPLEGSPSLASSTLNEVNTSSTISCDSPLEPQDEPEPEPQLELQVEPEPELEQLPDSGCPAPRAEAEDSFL

[2] = biological target: Cyclin-dependent kinase 9 (Homo sapiens, UniProt P50750); experiment: Inhibition of CDK9 (unknown origin) after 60 mins by TR-FRET assay
Chain of Cyclin-dependent kinase 9 (P50750 whole entry): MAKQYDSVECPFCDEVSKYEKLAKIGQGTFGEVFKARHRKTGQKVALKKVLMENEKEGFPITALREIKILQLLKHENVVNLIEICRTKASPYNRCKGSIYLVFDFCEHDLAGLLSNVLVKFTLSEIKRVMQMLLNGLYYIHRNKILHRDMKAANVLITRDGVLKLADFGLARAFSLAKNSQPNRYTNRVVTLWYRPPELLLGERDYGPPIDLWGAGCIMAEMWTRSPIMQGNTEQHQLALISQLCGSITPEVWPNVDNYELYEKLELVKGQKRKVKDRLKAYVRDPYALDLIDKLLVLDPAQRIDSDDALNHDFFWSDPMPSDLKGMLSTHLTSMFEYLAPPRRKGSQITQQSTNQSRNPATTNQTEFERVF

[3] = biological target: BDNF/NT-3 growth factors receptor (Homo sapiens, UniProt Q16620); experiment: Inhibition of TrkB (unknown origin) after 60 mins by TR-FRET assay
Chain of BDNF/NT-3 growth factors receptor (Q16620 whole entry): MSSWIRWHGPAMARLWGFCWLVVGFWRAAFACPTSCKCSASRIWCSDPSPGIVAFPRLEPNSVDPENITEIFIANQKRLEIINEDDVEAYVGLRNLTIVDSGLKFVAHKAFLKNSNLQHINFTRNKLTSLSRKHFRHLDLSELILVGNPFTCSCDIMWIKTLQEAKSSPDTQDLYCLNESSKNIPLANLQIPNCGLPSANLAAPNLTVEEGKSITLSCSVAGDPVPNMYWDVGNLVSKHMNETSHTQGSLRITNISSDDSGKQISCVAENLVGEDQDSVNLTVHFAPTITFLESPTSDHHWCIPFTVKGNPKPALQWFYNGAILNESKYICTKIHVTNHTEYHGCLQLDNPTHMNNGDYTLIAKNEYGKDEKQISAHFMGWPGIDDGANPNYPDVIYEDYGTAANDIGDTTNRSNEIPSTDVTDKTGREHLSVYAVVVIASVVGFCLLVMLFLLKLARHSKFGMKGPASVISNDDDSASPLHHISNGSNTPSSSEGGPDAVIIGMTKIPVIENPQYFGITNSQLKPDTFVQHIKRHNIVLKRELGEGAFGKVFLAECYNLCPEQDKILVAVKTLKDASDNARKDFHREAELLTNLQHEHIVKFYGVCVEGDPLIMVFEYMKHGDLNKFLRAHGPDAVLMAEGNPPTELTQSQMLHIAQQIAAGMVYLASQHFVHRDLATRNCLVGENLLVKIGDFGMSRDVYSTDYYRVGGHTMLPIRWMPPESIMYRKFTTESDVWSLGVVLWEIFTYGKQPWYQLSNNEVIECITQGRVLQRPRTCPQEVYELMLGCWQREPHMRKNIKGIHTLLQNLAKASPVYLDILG

[4] = biological target: T2, Serine/threonine-protein kinase TBK1 (Homo sapiens, UniProt Q9UHD2); experiment: Inhibition of TBK1 (unknown origin) after 60 mins by TR-FRET assay
T2 sequence (Q9UHD2 whole entry): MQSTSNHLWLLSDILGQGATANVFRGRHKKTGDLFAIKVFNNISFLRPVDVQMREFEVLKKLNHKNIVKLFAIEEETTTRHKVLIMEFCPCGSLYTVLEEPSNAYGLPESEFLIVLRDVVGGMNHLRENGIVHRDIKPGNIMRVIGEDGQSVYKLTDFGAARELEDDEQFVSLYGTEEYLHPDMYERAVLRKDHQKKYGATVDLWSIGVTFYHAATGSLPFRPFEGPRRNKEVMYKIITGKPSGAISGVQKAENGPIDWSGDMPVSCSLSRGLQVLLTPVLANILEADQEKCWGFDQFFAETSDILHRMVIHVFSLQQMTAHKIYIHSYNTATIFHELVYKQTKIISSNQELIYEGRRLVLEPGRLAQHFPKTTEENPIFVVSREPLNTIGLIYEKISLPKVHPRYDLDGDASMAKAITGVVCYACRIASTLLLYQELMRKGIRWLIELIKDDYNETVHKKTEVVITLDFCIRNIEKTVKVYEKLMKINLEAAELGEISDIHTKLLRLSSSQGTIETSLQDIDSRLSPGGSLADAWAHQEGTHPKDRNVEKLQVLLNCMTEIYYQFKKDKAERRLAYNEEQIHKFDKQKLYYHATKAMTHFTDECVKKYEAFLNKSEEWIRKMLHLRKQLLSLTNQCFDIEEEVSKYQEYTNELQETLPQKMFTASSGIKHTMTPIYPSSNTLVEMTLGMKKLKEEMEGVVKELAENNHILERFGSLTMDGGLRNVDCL

[5] = biological target: Leukocyte tyrosine kinase receptor (Homo sapiens, UniProt P29376); experiment: Inhibition of LTK (unknown origin) after 60 mins by TR-FRET assay
Chain of Leukocyte tyrosine kinase receptor (P29376 whole entry): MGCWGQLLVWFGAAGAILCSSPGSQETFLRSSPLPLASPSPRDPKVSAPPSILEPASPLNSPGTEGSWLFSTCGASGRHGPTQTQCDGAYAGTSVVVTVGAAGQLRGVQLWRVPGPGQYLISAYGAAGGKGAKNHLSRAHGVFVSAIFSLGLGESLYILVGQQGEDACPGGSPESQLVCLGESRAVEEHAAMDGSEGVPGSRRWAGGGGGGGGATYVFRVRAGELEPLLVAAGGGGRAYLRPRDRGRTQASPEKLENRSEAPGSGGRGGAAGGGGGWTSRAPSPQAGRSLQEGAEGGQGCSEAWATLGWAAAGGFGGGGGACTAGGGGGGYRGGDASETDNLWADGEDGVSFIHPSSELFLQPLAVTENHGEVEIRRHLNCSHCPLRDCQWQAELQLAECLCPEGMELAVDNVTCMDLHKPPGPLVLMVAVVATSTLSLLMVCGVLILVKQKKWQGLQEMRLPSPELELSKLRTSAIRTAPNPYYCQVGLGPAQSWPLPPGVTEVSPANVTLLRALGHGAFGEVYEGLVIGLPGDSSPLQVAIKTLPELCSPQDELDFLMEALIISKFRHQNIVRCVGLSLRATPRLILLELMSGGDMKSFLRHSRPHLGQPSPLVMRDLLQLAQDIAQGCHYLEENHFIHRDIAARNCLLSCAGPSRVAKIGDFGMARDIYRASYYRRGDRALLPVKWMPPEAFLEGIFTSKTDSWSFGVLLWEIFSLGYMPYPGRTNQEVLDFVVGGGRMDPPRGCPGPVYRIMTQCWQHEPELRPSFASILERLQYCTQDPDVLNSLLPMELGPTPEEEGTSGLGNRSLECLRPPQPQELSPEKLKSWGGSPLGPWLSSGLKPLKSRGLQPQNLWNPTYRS

[6] = biological target: T3, Inhibitor of nuclear factor kappa-B kinase subunit epsilon (Homo sapiens, UniProt Q14164); experiment: Inhibition of IKKE (unknown origin) after 60 mins by TR-FRET assay
T3 sequence (Q14164 whole entry): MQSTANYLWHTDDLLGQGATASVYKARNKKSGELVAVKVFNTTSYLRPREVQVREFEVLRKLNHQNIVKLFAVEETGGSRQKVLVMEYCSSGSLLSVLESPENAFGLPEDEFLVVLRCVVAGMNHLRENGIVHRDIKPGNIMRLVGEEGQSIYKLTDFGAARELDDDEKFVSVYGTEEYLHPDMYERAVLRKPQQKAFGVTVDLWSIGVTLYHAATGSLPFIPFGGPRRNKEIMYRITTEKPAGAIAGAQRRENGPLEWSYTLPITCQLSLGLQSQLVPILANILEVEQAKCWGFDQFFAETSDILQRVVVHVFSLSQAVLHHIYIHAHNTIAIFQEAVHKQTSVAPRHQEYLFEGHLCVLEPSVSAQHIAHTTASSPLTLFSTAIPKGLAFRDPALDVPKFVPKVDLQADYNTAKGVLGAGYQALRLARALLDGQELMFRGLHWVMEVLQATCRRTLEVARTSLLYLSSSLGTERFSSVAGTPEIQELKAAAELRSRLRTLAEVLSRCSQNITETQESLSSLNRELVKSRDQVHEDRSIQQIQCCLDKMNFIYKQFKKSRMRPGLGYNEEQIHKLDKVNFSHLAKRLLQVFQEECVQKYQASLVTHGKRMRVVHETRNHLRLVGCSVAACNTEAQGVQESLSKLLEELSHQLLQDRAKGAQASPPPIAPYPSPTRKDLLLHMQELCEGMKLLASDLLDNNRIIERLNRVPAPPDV

[7] = biological target: Fibroblast growth factor receptor 1 (Homo sapiens, UniProt P11362); experiment: Inhibition of FGFR1 (unknown origin) after 60 mins by TR-FRET assay
[8] = biological target: Tyrosine-protein kinase JAK2 (Homo sapiens, UniProt O60674); experiment: Inhibition of JAK2 (unknown origin) after 60 mins by TR-FRET assay
[9] = Inhibition of PKA (unknown origin) after 60 mins by TR-FRET assay
[10] = biological target: Platelet-derived growth factor receptor alpha (Homo sapiens, UniProt P16234); experiment: Inhibition of PDGFRA (unknown origin) after 60 mins by TR-FRET assay
[11] = biological target: Mitogen-activated protein kinase 8 (Homo sapiens, UniProt P45983); experiment: Inhibition of JNK1 (unknown origin) after 60 mins by TR-FRET assay
Chain of Mitogen-activated protein kinase 8 (P45983 whole entry): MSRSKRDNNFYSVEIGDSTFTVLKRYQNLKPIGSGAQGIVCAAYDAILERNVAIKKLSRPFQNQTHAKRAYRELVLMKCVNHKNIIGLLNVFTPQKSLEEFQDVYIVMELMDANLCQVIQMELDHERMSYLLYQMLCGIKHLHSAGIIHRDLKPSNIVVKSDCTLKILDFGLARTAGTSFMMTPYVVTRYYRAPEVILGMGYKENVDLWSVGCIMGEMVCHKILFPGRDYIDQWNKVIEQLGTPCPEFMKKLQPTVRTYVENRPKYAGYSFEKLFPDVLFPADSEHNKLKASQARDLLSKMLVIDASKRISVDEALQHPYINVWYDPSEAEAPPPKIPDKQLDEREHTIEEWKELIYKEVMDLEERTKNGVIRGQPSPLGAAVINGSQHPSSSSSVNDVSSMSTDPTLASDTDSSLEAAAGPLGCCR

Insulin receptor = Insulin receptor (Homo sapiens, UniProt P06213); experiment: Inhibition of INSR (unknown origin) after 60 mins by TR-FRET assay
Chain of Insulin receptor (P06213 28-758 limits assumed): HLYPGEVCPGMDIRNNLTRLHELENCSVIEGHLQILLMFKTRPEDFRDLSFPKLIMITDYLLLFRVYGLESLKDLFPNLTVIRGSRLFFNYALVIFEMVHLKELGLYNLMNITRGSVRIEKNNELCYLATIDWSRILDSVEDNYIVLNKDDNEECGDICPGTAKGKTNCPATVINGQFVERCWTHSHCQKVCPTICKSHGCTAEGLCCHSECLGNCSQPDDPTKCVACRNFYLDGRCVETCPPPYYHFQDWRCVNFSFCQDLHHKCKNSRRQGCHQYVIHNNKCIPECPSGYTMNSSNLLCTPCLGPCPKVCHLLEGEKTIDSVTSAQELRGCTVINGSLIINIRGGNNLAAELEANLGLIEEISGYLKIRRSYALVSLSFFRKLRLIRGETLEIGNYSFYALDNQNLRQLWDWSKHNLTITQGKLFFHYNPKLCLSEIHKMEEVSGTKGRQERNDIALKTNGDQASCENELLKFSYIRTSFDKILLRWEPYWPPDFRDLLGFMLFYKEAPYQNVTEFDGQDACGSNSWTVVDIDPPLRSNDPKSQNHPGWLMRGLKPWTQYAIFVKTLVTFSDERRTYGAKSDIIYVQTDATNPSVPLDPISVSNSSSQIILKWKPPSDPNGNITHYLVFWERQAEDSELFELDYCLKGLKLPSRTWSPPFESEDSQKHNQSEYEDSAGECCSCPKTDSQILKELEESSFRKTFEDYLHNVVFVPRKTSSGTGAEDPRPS
Chain of Insulin receptor (P06213 763-1382 limits assumed): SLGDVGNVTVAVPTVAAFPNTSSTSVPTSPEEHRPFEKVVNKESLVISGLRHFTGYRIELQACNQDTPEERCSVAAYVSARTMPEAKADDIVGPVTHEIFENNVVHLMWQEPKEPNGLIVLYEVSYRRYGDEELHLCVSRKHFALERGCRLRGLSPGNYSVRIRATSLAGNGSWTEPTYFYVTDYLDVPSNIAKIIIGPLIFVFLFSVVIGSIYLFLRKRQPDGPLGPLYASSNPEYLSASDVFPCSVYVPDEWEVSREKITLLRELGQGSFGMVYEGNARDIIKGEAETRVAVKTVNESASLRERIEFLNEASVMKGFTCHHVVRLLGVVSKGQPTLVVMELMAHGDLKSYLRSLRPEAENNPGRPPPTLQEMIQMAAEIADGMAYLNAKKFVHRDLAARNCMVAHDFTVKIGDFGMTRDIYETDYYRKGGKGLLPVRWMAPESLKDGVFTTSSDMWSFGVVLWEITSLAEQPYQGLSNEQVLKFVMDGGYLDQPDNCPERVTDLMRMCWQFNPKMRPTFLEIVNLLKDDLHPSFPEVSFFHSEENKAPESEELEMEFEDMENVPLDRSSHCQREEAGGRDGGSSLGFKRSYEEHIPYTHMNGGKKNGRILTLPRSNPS

[12] = biological target: Tyrosine-protein kinase SYK (Homo sapiens, UniProt P43405)
Description: Inhibition of Syk in human Ramos B cells assessed as decrease in intracellular calcium flux measured for 3.5 mins by calcium-5 dye based FLIPR assay

[13] = biological target: Proto-oncogene tyrosine-protein kinase receptor Ret (Homo sapiens, UniProt P07949); experiment: Inhibition of RET (unknown origin) after 60 mins by TR-FRET assay

| IC50 (Activin receptor type-1) | IC50 [1] | IC50 [2] | IC50 [3] | IC50 [4] | IC50 [5] | IC50 [6] | IC50 [7] | IC50 [8] | IC50 [9] | IC50 [10] | IC50 [11] | IC50 (Insulin receptor) | EC50 [12] | IC50 [13] | Structure (SMILES) |
| --- | --- | --- | --- | --- | --- | --- | --- | --- | --- | --- | --- | --- | --- | --- | --- |
| > 10 µM | > 10 µM | > 10 µM | > 10 µM | > 10 µM | 6.01 µM | > 10 µM | > 10 µM | 4.17 µM | > 10 µM | > 10 µM | 2.75 µM | > 10 µM |  |  | Cc1n[nH]c2cc(Nc3nc(NC4CC4)c4occc4n3)ccc12 |
| > 10 µM | 5.19 µM | > 10 µM | 0.379 µM | 7.61 µM | 5.11 µM | 3.43 µM | > 10 µM | 0.236 µM | > 10 µM | 5.59 µM | 2.67 µM | 2.13 µM | 0.017 µM | 0.379 µM | CC1(C)OCC(=O)Nc2cc(Nc3nc(NCC(F)(F)F)c4occc4n3)ccc21 |
| > 10 µM | > 10 µM | > 10 µM |  | > 10 µM | 7.4 µM | > 10 µM | > 10 µM |  | > 10 µM | > 10 µM | 2.89 µM |  | 0.235 µM | 3.5 µM | FC(F)(F)CNc1nc(Nc2ccc3cn[nH]c3c2)nc2ccoc12 |
| > 10 µM | > 10 µM | > 10 µM | 8.34 µM | > 10 µM | > 10 µM | > 10 µM | > 10 µM | 2.32 µM | > 10 µM | > 10 µM | 0.513 µM | 3.48 µM | 0.117 µM | 1.51 µM | FC(F)(F)CNc1nc(Nc2ccc(N3CCOCC3)c(Cl)c2)nc2ccoc12 |
